Experimental data: patent US20090247495A1, “CU[…] AND USES THEREOF” (priority 2007, published 2009)
Values after ≈ are worked out from the molar mass of the structure shown.

How the values were obtained:
HepG2 = assay: Hollow fiber assay, HepG2; assay type: in vivo, nude mice; conditions: 0.2 mg/kg, i.p., s.c. and p.o., up to 14 days
Description: The hollow fiber assay (HFA) was developed by the NCI as a high-throughput, preliminary in vivo screening assay for the evaluation of anti-cancer agents. Human liver cancer cell lines HepG2 and HepG2-resistant (HepG2-R) were in vitro cultured inside hollow fibers for a short term (48 hours), followed by in vivo implantation at s.c. sites of the nude mice. Mice were treated with negative control (0.5% CMC), positive control (10 mg/kg 5-Fluorouracil) and cucurbitacin B (0.2 mg/kg) for up to 14 days. Then the fibers were excised and analyzed for cell viability by MTT assay. The efficacies of cucurbitacin B against HepG2 and HepG2-R were expressed as the percentage of the results obtained in the negative control group.

K562 cells = assay: Flow cytometry for apoptosis analysis (Annexin V / PI), K562; assay type: cell-based, human; conditions: 80 nM, 48 hours
Description: 10^5/ml K562 cells were treated with cucurbitacin B in the presence of complete medium containing 10% FBS for 48 hours. The changes in cell morphology were visualized using Leica DMIL (Leica Microsystem). Cells were harvested and rinsed twice with ice-cold PBS (pH7.4) and a total 2.5×10^5 K562 cells were stained with 10 μl Annexin V and 10 μl propidium iodide in 100 μl 1×binding buffer for 15 minutes in dark and then subjected to apoptosis analysis with FACSCalibar Flow cytometer system (FACS Calibur BD Flow Cytometer). • 6.1.5 Flow Cytometry for Cell Cycle Analysis
Appropriate number of cell density were seeded into T-25 culture flask and treated with different doses of cucurbitacin B for 2 days. The apoptotic effects of cucurbitacin B on the cells were detected using Flow Cytometry analysis after stained with Anx.V and PI for 15 minutes. […] Cucuribitacin B induced apoptosis in a dose dependent manner, among them, 80 nM induced the highest apoptotic effect in K562 cells, with over 50% cells in apoptotic population and 10% cells in the necrotic population (late apoptotic and necrotic phase). The effect of cucurbitacin B on apoptosis and cell cycle profile in K562 cells were analyzed using flow cytometry, as depicted in FIG. 3.

Panc-1 and SW cells = assay: Annexin V / PI apoptosis by flow cytometry, pancreatic cells; assay type: cell-based, human; conditions: 48 h, increasing concentration
Description: Panc-1 and SW cells was incubated with vary doses of cucurbitacin B for 48 h at 37° C. At the end of treatment, cells were washed twice with cold PBS and resuspended at 2×10^6 cells/ml in 1×binding buffer. The cells were then stained with Annexin V and propidium iodide. All analyses were performed by flow cytometry.

Prostate cancer = assay: SRB growth inhibition, prostate cancer lines of the NCI panel; assay type: cell-based; conditions: Homo sapiens, 48 hours
Text: (§1) Human cancer cell lines from the 59-NCI Cancer Cell Line Panel including leukemia, melanoma and cancers of breast, brain, colon, lung, ovary, prostate and kidney, were purchased from the National Institute of Cancer (USA). The growth inhibition (GI50) of these cell lines treated with cucurbitacin B and cucurbitacin D in various concentrations was investigated.
(§2) 59 human cancer cell lines were maintained in RPMI 1640 (Invitrogen Life Technologies, CA, USA) supplemented with 5% Fetal Bovine Serum, 2 mM L-glutamine and 1% Penicillin/Streptomycin (Invitrogen Life Technologies) at 37° C. with 5% CO2. All chemicals were purchased from Sigma (St. Louis, Mo., USA) unless specified otherwise.
(§3) Sulforhodamine B (SRB) assay was applied to determine the cytostatic effect of cucurbitacin B and cucurbitacin D. SRB is a dye that binds to cellular proteins and will be dissolved in base. The biomass of total protein can be measured at 520 nm using a plate reader.
(§4) Cells were inoculated into 96-well microtiter plates including “Time zero” (Tz) plates in 100 μl at cell concentrations from 5000 to 40,000 cells per well according to NCI guideline. The cells were incubated at 37° C. with 5% CO2 for 24 hours. […] Bound SRB was solubilized with 100-200 ul per well of 10 mM trizma base and absorbance was measured at a wavelength of 520 nm. The percentage of growth inhibition was calculated as follows: […]

[1] = tested on: 59 human cancer cell lines; assay: SRB growth inhibition, 59-NCI Cancer Cell Line Panel; assay type: cell-based; conditions: 48 hours, range over 59 cell lines
Text: as §1, §2, §3, §4

[2] = tested on: HepG2(liver), HT29(colon) and MCF-7(breast); assay: MTT cell cytotoxicity assay, three cancer cell lines; assay type: cell-based; conditions: Homo sapiens; 48 hours; range over the three cell lines
Description: Three human cancer cell lines (HepG2(liver), HT29(colon) and MCF-7(breast)) were purchased from American Type Culture Collection (ATCC, Manassas, Va., USA). The cells were cultured in RPMI 1640 medium supplemented with 5% (v/v) fetal bovine serum (FBS) and 100 units/ml penicillin and streptomycin (Invitrogen Life Technologies) in a humidified 5% CO2 atmosphere at 37° C.
The cytotoxic effect of CuB and CuD on these three cancer cell lines were determined using MTT (3-[4,5-dimethylthiazol-2-yl]-2,5-diphenyl tetrazolium bromide) labeled cell cytotoxicity assay. A total of 1×10^4 cells were seeded into a 96-well plate for 24 hours prior to cucurbitacin B (CuB) or cucurbitacin D (CuD) treatment. They were then treated with different dosages of CuB/CuD for 48 hours. After the treatment, 20 μl of MTT (5 mg/ml) was added to each well and incubated for 4 hrs. Then the medium was discarded and 100 μl of dimethyl sulfoxide was added. The absorbance at 570 nm was then measured by using FLUOstar OPTIMA equipment (BMG, LABTECH GmbH, Germany). The percentage of inhibition against different dosages of CuB/CuD were plotted using the Prism software and the 50% inhibition concentration (IC50) were obtained.

HL60 and U937 cells = assay: Cell cycle analysis by flow cytometry, myeloid leukemia cells; assay type: cell-based, human; conditions: 96 hours
Description: HL60 and U937 cells were incubated with vary doses of cucurbitacin B for 96 hours at 37° C. For analysis of cell differentiaion, cells were then incubated with either R-phycoerythrin-conjugated murine anti-human CD11b antibody (DAKO, Carpinteria, Calif.). For analysis of cell cycle, cells were washed and fixed with chilled methanol, and incubated on ice for 30 minutes prior to staining with propidium iodide. All analyses were performed by flow cytometry.

CC(=O)OC(C)(C)/C=C/C(=O)[C@](C)(O)C1[C@H](O)C[C@@]2(C)C3CC=C4C(C[C@H](O)C(=O)C4(C)C)[C@]3(C)C(=O)C[C@]12C (some centres unmarked) [cucurbitacin B]
cell growth in hollow fibers (HepG2): potently inhibited | cells in apoptotic population (K562 cells): over 50% | cells in the necrotic population (late apoptotic and necrotic phase) (K562 cells): 10% | apoptotic cells (Panc-1 and SW cells): the percentage of apoptic cells rise | GI50 (Prostate cancer): 0.017 µM | GI50 [1]: 0.0058 to 0.164 µM | IC50 [2]: 0.31 to 1.6 mg/L (≈ 0.555 to 2.86 µM) | cell cycle effect (HL60 and U937 cells): significant S-phase cell cycle arrest
